Assay [1] concerns the target T1, taurine transporter (rB16a) (Rattus norvegicus, UniProt P31643).
T1 sequence (P31643 1-621): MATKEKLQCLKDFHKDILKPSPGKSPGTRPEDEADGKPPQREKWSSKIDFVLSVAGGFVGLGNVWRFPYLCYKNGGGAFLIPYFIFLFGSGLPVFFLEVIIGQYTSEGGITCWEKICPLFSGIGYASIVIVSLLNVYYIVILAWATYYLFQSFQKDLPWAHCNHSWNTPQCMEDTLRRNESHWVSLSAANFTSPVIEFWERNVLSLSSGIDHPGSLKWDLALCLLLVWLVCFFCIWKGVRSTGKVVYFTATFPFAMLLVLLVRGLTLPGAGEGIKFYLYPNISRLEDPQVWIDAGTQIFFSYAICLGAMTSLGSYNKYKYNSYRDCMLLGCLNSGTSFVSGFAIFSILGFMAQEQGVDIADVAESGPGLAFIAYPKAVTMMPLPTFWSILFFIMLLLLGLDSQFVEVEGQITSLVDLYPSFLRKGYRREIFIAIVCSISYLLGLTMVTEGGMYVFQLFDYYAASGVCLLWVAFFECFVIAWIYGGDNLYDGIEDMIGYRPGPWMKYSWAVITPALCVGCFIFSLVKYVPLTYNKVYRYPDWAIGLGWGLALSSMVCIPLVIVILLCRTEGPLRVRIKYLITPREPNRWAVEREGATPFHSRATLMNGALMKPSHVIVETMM
Put plainly: [3H]taurine uptake by COS-7 cells transfected with rB16a. The note with it: for inhibition at 10 µM: COS-7, read-out: % Inhibition of [3H]taurine uptake, rB16a, inhibitor 10 μM; for inhibition at 10 µM / inhibition at 100 µM / inhibition at 1000 µM / % Inhibition of [3H]taurine uptake, rB16a: 50 nM [3H]taurine, 10 minutes, 37° C.; for inhibition at 100 µM: COS-7, read-out: % Inhibition of [3H]taurine uptake, rB16a, inhibitor 100 μM; for inhibition at 1000 µM: COS-7, read-out: % Inhibition of [3H]taurine uptake, rB16a, inhibitor 1 mM.
Experimental: Transient transfections of COS cells with the plasmid pEVJB-rB16a were carried out using DEAE-dextran with DMSO according to the method of Lopata et al. (58) with minor modifications. COS cells were grown (37° C., 5%CO2) in high glucose Dulbecco's modified Eagle medium supplemented with 10% bovine calf serum, 100 U/ml penicillin G, and 100 μg/ml streptomycin sulfate. Cells were routinely used two days after transfection for transport studies.
Plates were incubated at 37° C. for 10 minutes unless indicated otherwise, then washed rapidly 3× with ice cold HBS. Cells were solubilized with 0.05% sodium deoxycholate/0.1N NaOH), an aliquot was neutralized with 1N HCl, and radioactivity was determined by scintillation counting. Protein was quantified in an aliquot of the solubilized cells using a BIO-RAD protein assay kit, according to the manufacturer's directions.

In a further assay the target is T2, human GAT-3 (Homo sapiens, UniProt P48066).
T2 sequence (P48066 1-632): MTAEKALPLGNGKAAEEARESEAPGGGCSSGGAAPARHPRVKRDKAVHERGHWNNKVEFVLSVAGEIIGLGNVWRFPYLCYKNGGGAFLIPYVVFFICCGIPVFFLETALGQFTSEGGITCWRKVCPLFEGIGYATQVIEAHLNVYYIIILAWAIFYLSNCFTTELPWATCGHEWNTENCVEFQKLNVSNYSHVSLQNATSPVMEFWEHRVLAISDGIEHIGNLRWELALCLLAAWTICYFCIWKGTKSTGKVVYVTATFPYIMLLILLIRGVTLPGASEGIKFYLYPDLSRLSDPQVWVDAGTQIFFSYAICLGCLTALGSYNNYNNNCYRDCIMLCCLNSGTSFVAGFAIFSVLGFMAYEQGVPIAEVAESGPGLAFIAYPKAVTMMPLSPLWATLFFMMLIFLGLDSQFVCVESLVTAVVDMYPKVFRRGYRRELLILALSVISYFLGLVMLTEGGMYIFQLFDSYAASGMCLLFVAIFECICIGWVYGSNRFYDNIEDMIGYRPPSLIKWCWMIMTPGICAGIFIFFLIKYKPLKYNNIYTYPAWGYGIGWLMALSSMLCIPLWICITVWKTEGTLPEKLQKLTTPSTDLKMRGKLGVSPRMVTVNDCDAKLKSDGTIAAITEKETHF
To be noted: 50 nM [3H]GABA.

For assay [2], the system named is endogenous taurine transporter in COS cells. The assay can be described thus: [3H]taurine uptake by non-transfected COS-7 cells (control). The format is cell-based. The note with it: 50 nM [3H]taurine, 10 minutes, 37° C.
Assay [3] concerns the target T3, human GAT-1 (Homo sapiens, UniProt P30531). The note with it: read-out: IC50 for inhibition of [3H]GABA uptake, human GAT-1.
Experimental: (§1) Cells were grown under standard conditions (37° C., 5% CO2) in Dulbecco's modified Eagles's medium (GIBCO, Grand Island, N.Y.).
(§2) Cells grown in 24-well plates were washed 3× with HEPES-buffered saline (HBS, in mM: NaCl, 150; HEPES, 20; CaCl2, 1; glucose, 10; KCl, 5; MgCl2, 1; pH 7.4) and allowed to equilibrate on a 37° C. slide warmer. After 10 minutes the medium was removed and unlabeled drugs in HBS were added (450 μl/well). […] Plates were incubated at 37° C. for 10 minutes, then washed rapidly 3× with ice-cold HBS, using a 24-position plate washer (Brandel, Gaithersburg, Mass.; model PW-12). Cells were solubilized with 0.05% sodium deoxycholate/0.1N NaOH (0.25 ml/well), an aliquot neutralized with 1N HCl, and radioactivity was determined by scintillation counting. Protein was quantified in an aliquot of the solubilized cells using a BIO-RAD protein assay kit, according to the manufacturer's directions.
(§3) Lipophilic inhibitors were dissolved in DMSO.
(§4) Data Analysis: Competition curves were conducted in duplicate, using 10 concentrations of unlabeled drug.
Assay [4] has as its target T4, hBGT-1 (Homo sapiens, UniProt P48065).
T4 sequence (P48065 1-614): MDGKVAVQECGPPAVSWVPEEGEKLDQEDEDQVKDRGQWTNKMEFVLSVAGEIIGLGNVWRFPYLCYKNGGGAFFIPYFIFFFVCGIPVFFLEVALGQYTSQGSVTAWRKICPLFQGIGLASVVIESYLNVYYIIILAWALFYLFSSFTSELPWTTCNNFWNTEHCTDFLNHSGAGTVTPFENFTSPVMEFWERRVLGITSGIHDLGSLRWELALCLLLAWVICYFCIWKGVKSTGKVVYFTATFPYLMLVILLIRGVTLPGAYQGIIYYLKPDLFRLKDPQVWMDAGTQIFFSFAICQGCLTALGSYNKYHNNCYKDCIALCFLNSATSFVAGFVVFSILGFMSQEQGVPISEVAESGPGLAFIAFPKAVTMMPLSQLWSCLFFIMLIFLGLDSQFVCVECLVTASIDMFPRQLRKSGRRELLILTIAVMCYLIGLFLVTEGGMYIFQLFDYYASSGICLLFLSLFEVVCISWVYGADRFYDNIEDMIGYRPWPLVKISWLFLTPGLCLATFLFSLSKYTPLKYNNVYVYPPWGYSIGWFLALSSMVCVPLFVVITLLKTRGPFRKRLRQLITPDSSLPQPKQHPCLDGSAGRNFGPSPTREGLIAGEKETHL
The note with it: read-out: IC50 for inhibition of [3H]GABA uptake, human BGT-1; stable cell line; 50 nM [3H]GABA.
Experimental: as §1, §2, §3, §4

Another assay has as its system animals. The note with it: in vivo; cited from earlier work.
Assay [5] has as its target T4, hBGT-1. Put plainly: cell-based.
Experimental: as §1, §2, §3, §4
The target in assay [6] is T3, human GAT-1. The assay can be described thus: cell-based.
Experimental: as §1, §2, §3, §4
Setting [7] is: IC50 for inhibition of [3H]GABA uptake, human GAT-3, stable cell line.

Several values for one entry are separate records, joined by “and”; a condition that tells them apart may be missing. Identical values can stand only once. Like-named read-outs stand apart in the source and are kept apart here.

T3 sequence (P30531 whole entry): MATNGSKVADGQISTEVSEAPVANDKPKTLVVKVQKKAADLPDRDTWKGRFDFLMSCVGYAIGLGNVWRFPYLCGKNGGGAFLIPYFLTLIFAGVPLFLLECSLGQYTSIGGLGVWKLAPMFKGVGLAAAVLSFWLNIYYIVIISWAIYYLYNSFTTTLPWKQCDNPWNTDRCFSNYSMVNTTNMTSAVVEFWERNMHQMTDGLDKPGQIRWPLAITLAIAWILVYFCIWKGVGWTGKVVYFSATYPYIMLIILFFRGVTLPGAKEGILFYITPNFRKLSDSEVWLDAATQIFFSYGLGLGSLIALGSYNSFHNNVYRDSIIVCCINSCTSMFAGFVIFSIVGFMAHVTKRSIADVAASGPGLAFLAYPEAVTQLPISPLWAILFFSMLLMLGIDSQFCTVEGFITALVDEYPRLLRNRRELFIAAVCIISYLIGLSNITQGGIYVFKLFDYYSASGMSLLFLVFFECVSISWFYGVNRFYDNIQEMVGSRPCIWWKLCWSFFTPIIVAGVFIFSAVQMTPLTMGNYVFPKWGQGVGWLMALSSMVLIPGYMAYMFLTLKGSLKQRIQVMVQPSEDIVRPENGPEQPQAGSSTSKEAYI
Experimental for human GAT-3: as §1, §2, §3, §4

For orientation: inhibition means the change of the read-out against control, counted positive when it falls. What is called IC50 is the midpoint of a concentration-inhibition curve. Turning to `NCCCC(=O)O` [GABA, gamma-aminobutyric acid], in assay [1], the inhibition at 10 µM turned out to be 9 ± 6%, the inhibition at 100 µM was around 10% and the inhibition at 1000 µM is around 40%. Moreover, the “affinity of the taurine transporter for GABA” value in assay [1] (from Table 15) was around 1 mM. Also, in assay [1] (inhibitor 1 mM), the “% Inhibition of [3H]taurine uptake, rB16a” value (from here on “% Inhibition … rB16a”) is 44 ± 6 (8) %. Further, the IC50 on human GAT-3 (setting [7]) was ~5 µM and ~7 µM.

As to `N=C(N)NCCS(=O)(=O)O` [GES, guanidinoethanesulfonic acid], the “% Inhibition of [3H]taurine uptake, control” value (“% Inhibition … control” for short) in assay [2] (inhibitor 10 μM) is recorded as 6 ± 3 (4) %; in assay [2] (inhibitor 100 μM) it was 47 ± 3 (5) %; in assay [2] (inhibitor 1 mM), 89 ± 1 (5) %. The results for the “% Inhibition … rB16a” value in assay [1] (inhibitor 10 μM), in assay [1] (inhibitor 100 μM) and in assay [1] (inhibitor 1 mM) were 11%, 45% and 92%, respectively.

For the compound `O=C(O)C1=CCCN(CCON=C(c2ccccc2)c2ccccc2)C1` [NNC-711], the IC50 on human GAT-1 [3] was determined as 40 ± 10 nM; at hBGT-1 [4] it was 622 ± 265 µM; at human GAT-3 (read-out: IC50 for inhibition of [3H]GABA uptake, human GAT-3, stable cell line) it was 1700 ± 252 µM. In addition, the “anticonvulsive activity in animals” value with animals is listed as “anticonvulsive activity”.

Consider `O=C(O)C1=CCCNC1` [guvacine], for which the 50% inhibitory concentration (IC50) against hBGT-1 [5] is above 1 mM.

Regarding `NCCS(=O)O` [hypotaurine], the results for the “% Inhibition … control” value in assay [2] (inhibitor 10 μM), in assay [2] (inhibitor 100 μM) and in assay [2] (inhibitor 1 mM) were 41 ± 3 (7) %, 91 ± 1 (4) % and 99 ± 1 (4) %, respectively. Besides, the inhibition at 10 µM in assay [1] fell in the range of 30 to 40%. Besides, the inhibition at 100 µM in assay [1] is around 90%. Moreover, the inhibition at 1000 µM in assay [1] is around 100%. Further, the “% Inhibition … rB16a” value was 26 ± 7 (7) % in assay [1] (inhibitor 10 μM) and 84 ± 3 (4) % in assay [1] (inhibitor 100 μM).

As to `NCCS(=O)(=O)O` [taurine, 2-aminoethanesulfonic acid], the “% Inhibition … control” value in assay [2] (inhibitor 10 μM) is 38 ± 5 (7) %; in assay [2] (inhibitor 100 μM), 89 ± 2 (4) %; in assay [2] (inhibitor 1 mM), 100° %. Further, the inhibition at 10 µM in assay [1] fell in the range of 30 to 40%. Also, the inhibition at 100 µM in assay [1] is around 90%. The inhibition at 1000 µM in assay [1] was around 100%. The “% Inhibition … rB16a” value in assay [1] (inhibitor 10 μM) was 29 ± 8 (5) %; in assay [1] (inhibitor 100 μM) it was 83 ± 2 (5) %; in assay [1] (inhibitor 1 mM), 100° %. The “VMAX of taurine transport, COS/rB16a” value in assay [1] (various concentrations of [3H]taurine, 30 seconds) is reported as 0.96±0.27 nmoles/mg protein.

As for `NCCC(=O)O` [β-alanine], the “% Inhibition … control” value was 9 ± 2 (6) % in assay [2] (inhibitor 10 μM), 63 ± 3 (6) % in assay [2] (inhibitor 100 μM) and 97 ± 1 (4) % in assay [2] (inhibitor 1 mM). Further, the half-maximal inhibitory concentration (IC50) was 5.69 ± 1.89 mM on human GAT-1 [6]; above 1 mM against hBGT-1 [5] (IC50 at hBGT-1); 1.32 ± 0.224 mM against hBGT-1 [5] (IC50 for inhibition of [3H]GABA uptake, human BGT-1, stable cell line, 50 nM [3H]GABA); ~58 µM and 58 µM at human GAT-3 (setting [7]). The inhibition at 10 µM in assay [1] was determined as 15%. In assay [1], the inhibition at 100 µM came to 51%. Moreover, the inhibition at 1000 µM in assay [1] was determined as 96%.

These data come from US20030143729A1 (Synaptic Pharmaceutical Corporation, priority 1992, published 2003).
